{"source": "ChEMBL document CHEMBL6120988", "about": "“Mitochondria-targeting artesunate-rhein conjugates: Linker-modulated cell-permeability, heme-affinity and anticancer activity” (Eur J Med Chem, 2025)", "key": {"4T1 [1]": {"system": "4T1", "test": "Antitumor activity against mouse 4T1 cells allografted in female BALB/c mouse assessed as increase in infiltration of CD3+ CD8+ T lymphocytes in tumors at 100 mg/kg, po administrated every day for 15 times and measured after 22 days by flow cytometry (reference value: 6.91 %)", "assay_type": "functional", "conditions": "time 22 day"}, "4T1 [2]": {"system": "4T1", "test": "Immunostimulatory activity in mouse 4T1 cells implanted in female BALB/c mouse assessed as reduction in immunosuppressive CD206+ expression", "assay_type": "functional, cell-based"}, "4T1 [3]": {"system": "4T1", "test": "Induction of mitochondrial dysfunction in mouse 4T1 cells assessed as maximum respiration", "assay_type": "functional, cell-based"}, "[4]": {"test": "Toxicity in female BALB/c mouse allografted with mouse 4T1 cells assessed as survival rate at 100 mg/kg, po administrated every day for 15 times and measured after 22 days relative to control", "assay_type": "organism-based", "conditions": "in vivo, 528 h, time 22 day"}, "4T1 [5]": {"system": "4T1", "test": "Induction of apoptosis in mouse 4T1 cells assessed as viable cells by Annexin V-FITC and PI staining based flow cytometry analysis (reference value: 96.2 %)", "assay_type": "functional"}, "[6]": {"test": "Toxicity against female BALB/c mouse allografted with mouse 4T1 cells assessed as hemoglobin at 100 mg/kg, po administrated every day for 15 times and measured after 22 days", "assay_type": "organism-based", "conditions": "in vivo, 528 h, time 22 day"}, "[7]": {"test": "Toxicity against female BALB/c mouse allografted with mouse 4T1 cells assessed as effect on white blood cells at 10 mg/kg, iv administrated every 3 days for 5 times and measured after 22 days", "assay_type": "organism-based", "conditions": "in vivo, 528 h, time 22 day"}, "4T1 [8]": {"system": "4T1", "test": "Antitumor activity against mouse 4T1 cells allografted in female BALB/c mouse assessed as tumor inhibition rate at 10 mg/kg, iv administrated every 3 day for 5 times and measured after 22 days relative to control", "assay_type": "functional", "design": "scale not given: the % may be the effect or the level left", "conditions": "time 22 day"}, "4T1 [9]": {"system": "4T1", "test": "Induction of mitochondrial dysfunction in mouse 4T1 cells assessed as basal respiration", "assay_type": "functional, cell-based"}, "4T1 [10]": {"system": "4T1", "test": "Antitumor activity against mouse 4T1 cells allografted in female BALB/c mouse assessed as tumor inhibition rate at 100 mg/kg, po administrated every day for 15 times and measured after 22 days relative to control", "assay_type": "functional", "design": "scale not given: the % may be the effect or the level left", "conditions": "time 22 day"}, "4T1 [11]": {"system": "4T1", "test": "Antitumor activity against mouse 4T1 cells allografted in female BALB/c mouse assessed as increase in apoptotic cells at 100 mg/kg, po administrated every day for 15 times and measured after 22 days by TUNEL staining based assay", "assay_type": "functional, organism-based", "conditions": "time 22.0 day"}, "[12]": {"test": "Tmax in mouse at 100 mg/kg, po", "assay_type": "ADME, organism-based", "conditions": "in vivo"}, "[13]": {"test": "MRT (0 to infinity) in iv dosed mouse", "assay_type": "ADME, organism-based", "conditions": "in vivo"}, "[14]": {"test": "Toxicity against female BALB/c mouse allografted with mouse 4T1 cells assessed as mean corpuscular hemoglobin concentration at 100 mg/kg, po administrated every day for 15 times and measured after 22 days", "assay_type": "organism-based", "conditions": "in vivo, 528 h, time 22 day"}, "[15]": {"test": "Toxicity against female BALB/c mouse allografted with mouse 4T1 cells assessed as effect on red blood cells at 100 mg/kg, po administrated every day for 15 times and measured after 22 days", "assay_type": "organism-based", "conditions": "in vivo, 528 h, time 22 day"}, "4T1 [16]": {"system": "4T1", "test": "Induction of apoptosis in mouse 4T1 cells assessed as late apoptotic cells by Annexin V-FITC and PI staining based flow cytometry analysis (reference value: 0.13 %)", "assay_type": "functional"}, "4T1 [17]": {"system": "4T1", "test": "Induction of mitochondrial dysfunction in mouse 4T1 cells assessed as coupling efficiency", "assay_type": "functional, cell-based"}, "MCF7": {"system": "MCF7", "test": "Cytotoxicity against human MCF7 cells assessed as cell viability by MTT assay", "assay_type": "functional, cell-based"}, "4T1 [18]": {"system": "4T1", "test": "Antitumor activity against mouse 4T1 cells allografted in female BALB/c mouse assessed as reduction in tumor tissue weight at 100 mg/kg, po administrated every day for 15 times and measured after 22 days", "assay_type": "functional, organism-based", "conditions": "time 22.0 day"}, "[19]": {"test": "Toxicity against female BALB/c mouse allografted with mouse 4T1 cells assessed as mean corpuscular volume at 100 mg/kg, po administrated every day for 15 times and measured after 22 days", "assay_type": "organism-based", "conditions": "in vivo, 528 h, time 22 day"}, "4T1 [20]": {"system": "4T1", "test": "Induction of apoptosis in mouse 4T1 cells assessed as early apoptotic cells by Annexin V-FITC and PI staining based flow cytometry analysis(reference value: 3.60 %)", "assay_type": "functional"}, "4T1 [21]": {"system": "4T1", "test": "Induction of mitochondrial dysfunction in mouse 4T1 cells assessed as oxygen consumption rate", "assay_type": "functional, cell-based"}, "4T1 [22]": {"system": "4T1", "test": "Antitumor activity against mouse 4T1 cells allografted in female BALB/c mouse assessed as reduction in tumor tissue volume at 10 mg/kg, iv administrated every 3 day for 5 times and measured after for 22 days", "assay_type": "functional, organism-based", "conditions": "time 22.0 day"}, "4T1 [23]": {"system": "4T1", "test": "Potency index, ratio of paclitaxel IC50 to test compound IC50 for cytotoxicity against mouse 4T1 cells assessed as cell viability by MTT assay", "assay_type": "functional"}, "[24]": {"test": "Toxicity against female BALB/c mouse allografted with mouse 4T1 cells assessed as effect on white blood cells at 100 mg/kg, po administrated every day for 15 times and measured after 22 days", "assay_type": "organism-based", "conditions": "in vivo, 528 h, time 22 day"}, "[25]": {"test": "Toxicity against female BALB/c mouse allografted with mouse 4T1 cells assessed as mean corpuscular hemoglobin concentration at 10 mg/kg, iv administrated every 3 days for 5 times and measured after 22 days", "assay_type": "organism-based", "conditions": "in vivo, 528 h, time 22 day"}, "4T1 [26]": {"system": "4T1", "test": "Antitumor activity against mouse 4T1 cells allografted in female BALB/c mouse assessed as inhibition of cell proliferation at 10 mg/kg, iv administrated every 3 day for 5 times and measured after 22 days by PCNA assay", "assay_type": "functional, organism-based", "conditions": "time 22.0 day"}, "4T1 [27]": {"system": "4T1", "test": "Antitumor activity against mouse 4T1 cells allografted in female BALB/c mouse assessed as increase in infiltration of CD3+ CD8+ T lymphocytes in tumors at 10 mg/kg, iv administrated every 3 days for 5 times and measured after 22 days by flow cytometry analysis (reference value: 7.87 %)", "assay_type": "functional", "conditions": "time 22 day"}, "[28]": {"test": "Toxicity in female BALB/c mouse allografted with mouse 4T1 cells assessed as effect on blood platelet at 10 mg/kg, iv administrated every 3 days for 5 times and measured after 22 days", "assay_type": "organism-based", "conditions": "in vivo, 528 h, time 22 day"}, "4T1 [29]": {"system": "4T1", "test": "Antitumor activity against mouse 4T1 cells allografted in female BALB/c mouse assessed as increase in infiltration of CD8+IFN-gamma+ lymphocytes in tumors at 10 mg/kg, iv administrated every day for 15 times and measured after 22 days by flow cytometry (reference value: 5.58%)", "assay_type": "functional", "conditions": "time 22 day"}, "HeLa": {"system": "HeLa", "test": "Cytotoxicity against human Hela cells assessed as cell viability by MTT assay", "assay_type": "functional, cell-based"}, "[30]": {"test": "Toxicity in female BALB/c mouse allografted with mouse 4T1 cells assessed as change in body weight at 100 mg/kg, po administrated every day for 15 times and measured every 2 days for 22 days relative to control", "assay_type": "organism-based", "conditions": "in vivo, 528 h, time 22 day"}, "[31]": {"test": "Toxicity in female BALB/c mouse allografted with mouse 4T1 cells assessed as effect on blood platelet at 100 mg/kg, po administrated every day for 15 times and measured after 22 days", "assay_type": "organism-based", "conditions": "in vivo, 528 h, time 22 day"}, "4T1 [32]": {"system": "4T1", "test": "Induction of immunogenic cell death in mouse 4T1 cells assessed as increase in CRT expression by flow cytometry analysis (reference value: 2.55%)", "assay_type": "functional"}, "4T1 [33]": {"system": "4T1", "test": "Cytotoxicty against mouse 4T1 cells assessed as cell viability by MTT assay", "assay_type": "functional, cell-based"}}, "note": "The source made the active and inactive calls. The rule behind the calls is not given here."}
{"smiles": "C[C@H]1[C@H](OC(=O)CCC(=O)OCCCCOC(=O)c2cc(O)c3c(c2)C(=O)c2cccc(O)c2C3=O)O[C@@H]2O[C@@]3(C)CC[C@H]4[C@H](C)CC[C@@H]1[C@@]24OO3", "values": [{"measurement": "Activity", "setting": "4T1 [1]", "result": 15.4, "unit": "%"}, {"measurement": "Activity", "setting": "4T1 [2]", "result": "Active"}, {"measurement": "Activity", "setting": "4T1 [3]", "result": "Active"}, {"measurement": "Survival", "setting": "[4]", "result": "<= 39 day"}, {"measurement": "Activity", "setting": "4T1 [5]", "result": 35.5, "unit": "%"}, {"measurement": "Activity", "setting": "[6]", "result": "Non-toxic"}, {"measurement": "Activity", "setting": "[7]", "result": "Non-toxic"}, {"measurement": "Activity", "setting": "4T1 [8]", "result": 79.15, "unit": "%"}, {"measurement": "Activity", "setting": "4T1 [9]", "result": "Active"}, {"measurement": "Activity", "setting": "4T1 [10]", "result": 76.84, "unit": "%"}, {"measurement": "Activity", "setting": "4T1 [11]", "result": "Active"}, {"measurement": "Tmax", "setting": "[12]", "result": 3, "unit": "h"}, {"measurement": "MRT inf", "setting": "[13]", "result": 7.67, "unit": "h"}, {"measurement": "Activity", "setting": "[14]", "result": "Non-toxic"}, {"measurement": "Activity", "setting": "[15]", "result": "Non-toxic"}, {"measurement": "Activity", "setting": "4T1 [16]", "result": 29.4, "unit": "%"}, {"measurement": "Activity", "setting": "4T1 [17]", "result": "Active"}, {"measurement": "IC50", "setting": "MCF7", "result": 1900, "unit": "nM"}, {"measurement": "Activity", "setting": "4T1 [18]", "result": "Active"}, {"measurement": "Activity", "setting": "[19]", "result": "Non-toxic"}, {"measurement": "Activity", "setting": "4T1 [20]", "result": 34.8, "unit": "%"}, {"measurement": "Activity", "setting": "4T1 [21]", "result": "Active"}, {"measurement": "Activity", "setting": "4T1 [22]", "result": "Active"}, {"measurement": "Ratio IC50", "setting": "4T1 [23]", "result": 3}, {"measurement": "Activity", "setting": "[24]", "result": "Non-toxic"}, {"measurement": "Activity", "setting": "[25]", "result": "Non-toxic"}, {"measurement": "Activity", "setting": "4T1 [26]", "result": "Active"}, {"measurement": "Activity", "setting": "4T1 [27]", "result": 15.33, "unit": "%"}, {"measurement": "Activity", "setting": "[28]", "result": "Non-toxic"}, {"measurement": "Activity", "setting": "4T1 [29]", "result": 12.3, "unit": "%"}, {"measurement": "IC50", "setting": "HeLa", "result": 2430, "unit": "nM"}, {"measurement": "Activity", "setting": "[30]", "result": "Non-toxic"}, {"measurement": "Activity", "setting": "[31]", "result": "Non-toxic"}, {"measurement": "Activity", "setting": "4T1 [32]", "result": 32.82, "unit": "%"}, {"measurement": "IC50", "setting": "4T1 [33]", "result": 1130, "unit": "nM"}]}
